Laboratory results as given in patent US20050107346A1, “N-acetylcolchinol-o-phosphate combination therapies with vascular damaging activity” (ASTRAZENECA AB, priority 2000, published 2005).

What was measured:
murine KHT sarcoma [1] = test: KHT sarcoma tumour cell survival (excision and colony formation), cisplatin plus ZD6126; assay type: in vivo; settings: 10 mg/kg cisplatin i.p. alone; assessed 24 hours later
Description: In the murine KHT sarcoma model (Lingyun Li, B. S. et al, Int. J. Radiation Oncology Biol. Phys 42, 899-903, 1998) tumours were treated with either 10 mg/kg cisplatin i.p. alone or 10 mg/kg cisplatin plus ZD6126 (10-100 mg/kg i.p.), cisplatin given 1 hour prior to ZD6126. The effects of the treatments on tumour cell survival was assessed 24 hours later by excising the tumour, disaggregating the cells and determining the number of colonies formed after 10-14 days. Surviving fraction compared to untreated cells was then determined.

[2] = system: human Calu 6 tumour cells; test: Calu 6 tumour model growth delay, ZD6126 in combination with cisplatin; assay type: in vivo; settings: athymic nude mice; ZD6126 100 mg/kg i.p. x5 days; cisplatin 4 mg/kg i.p. day 0
Description: In a second tumour model, Calu 6, the advantage of combining ZD6126 and cisplatin (cis-Platinum(II)Diammine Dichloride—Sigma P-4394) was confirmed. Athymic nude mice were implanted subcutaneously with 1×10^6 human Calu 6 tumour cells (obtained from American Type Culture Collection, 10801 University Boulevard, Manassas, Va. 20110-2209 Cat. no. Hm-56) and tumours allowed to grow until they were approximately 9 mm in diameter. Groups of 10 tumour bearing mice were then treated as follows:
ZD6126 alone was dosed 100 mg/kg i.p. on days 0, 1, 2, 3, 4.
Cisplatin alone was dosed 4 mg/kg i.p. on day 0.
In the combination arm cisplatin 4 mg/kg i.p. was dosed on day 0, and ZD6126 100 mg/kg i.p. was dosed on days 1, 2, 3, 4 and 5.
The combination of cisplatin and ZD6126 gave a growth delay (time to reach 2× starting volume) of 20.5 days compared to control tumours.

[3] = system: murine adenocarcinoma CaNT tumour; test: CaNT tumour model growth delay, ZD6126 in combination with cisplatin; assay type: in vivo, mice
Description: ZD6126 alone was dosed on days 0, 2 and 4 using a split dose regimen of 100 mg/kg ZD6126, followed by a 2 hour interval, followed by a further 100 mg/kg ZD6126; doses were given intraperitoneally (i.p.).
Cisplatin (David Bull Laboratories) alone was dosed at 5 mg/kg i.p on day 0.
The combination treatment consisted of: • Day 0: ZD6126 100 mg/kg i.p., followed by a 2 hour interval, followed by a further 100 mg/kg ZD6126 i.p; and cisplatin 5 mg/kg given 10 minutes before first ZD6126 dose. • Days 2 and 4: ZD6126 100 mg/kg i.p., followed by a 2 hour interval, followed by a further 100 mg/kg ZD6126 i.p..
ZD6126 alone was dosed on days 0, 4, 7 and 11 using a split dose regimen of ZD6126 100 mg/kg i.p., followed by a 2 hour interval, followed by a further 100 mg/kg ZD6126 i.p.. Cisplatin alone was dosed at 5 mg/kg i.p on day 0 and day 7.
The combination treatment consisted of: • Days 0 and 7: ZD6126 100 mg/kg i.p., followed by a 2 hour interval, followed by a further 100 mg/kg ZD6126 i.p.; cisplatin given 10 minutes before first ZD6126 dose. • Days 3, 7 and 10: ZD6126 100 mg/kg i.p., followed by a 2 hour interval, followed by a further 100 mg/kg ZD6126 i.p..

CaNT tumours = test: CaNT tumour model growth delay, ZD6126 in combination with ionising radiation; assay type: in vivo, mice; settings: ZD6126 125 mg/kg i.p. days 0-4 and 7-11; radiation 15 Gy days 0 and 7
Description: The activity of combining ZD6126 and radiation in the CaNT tumour model was also investigated. Tumours were treated with either radiation alone (15 Gy days 0 and 7), ZD6126 alone (single dose of ZD6126 125 mg/kg i.p. on days 0, 1, 2, 3, 4, 7, 8, 9, 10 and 11), or a combination of both (15 Gy days 0 and 7, ZD6126 125 mg/kg i.p. on days 0, 1, 2, 3, 4, 7, 8, 9, 10 and 11). On the days radiation and ZD6126 were administered together,radiation treatment was given 3 hours after ZD6126 administration. Radiation was administered by placing the mice in lead boxes so that only the tumour bearing portion of the rear dorsum was exposed to a horizontal X-ray beam (Sheldon and Hill, B J C, 35, 795-808, […]). Mice were irradiated with 240 kV X-rays at a dose rate of 3.6 Gy/min.

[4] = system: FaDu cells (human squamous cell carcinoma of the pharynx); test: FaDu tumour model growth delay, ZD6126 in combination with paclitaxel; assay type: in vivo; settings: SCID mice; single dose ZD6126 125 mg/kg i.p.; paclitaxel 15 mg/kg i.p.
Description: In a third tumour model 5×10^5FaDu cells (human squamous cell carcinoma of the pharynx) were implanted onto the rear dorsum of 12-16 week old, female SCID mice. When the tumours had become established they were excised and cut into small tumour fragments approximately 1 mm^3. These fragments were implanted subcutaneously into further SCID mice. Once these tumours had become established (approximately 6 mm diameter) mice were treated with either a single dose of ZD6126 (125 mg/kg i.p.) alone, a single dose of paclitaxel (Taxol-BMS) (15 or 30 mg/kg i.p.) alone or the combination of a single dose of paclitaxel (15 mg/kg i.p.) and ZD6126 (125 mg/kg i.p.), paclitaxel being given 15 minutes before ZD6126.

[5] = system: murine adenocarcinoma CaNT tumour; test: In vivo cell survival excision assay, ZD6126 single versus divided doses in CaNT tumours; parameters: species or system mice
Description: In vivo cell survival was measured using an excision assay (D J Chaplin et al., Anticancer Research 19: 189-196 (1999)).
For each of the assays a) and b) below, the surviving fraction of tumour cells was determined as follows:
Tumours were excised at about 18 hours after treatment, weighed and disaggregated for 1 hour at 37 degrees Celsius in an enzyme cocktail containing 1 mg/ml pronase, 0.5 mg/ml DNAase and 0.5 mg/ml collagenase. Haemocytometer counts of trypan blue-excluding cells were made and viable cells seeded in appropriate concentrations to yield about 50 colonies/dish after in vitro incubation. Heavily irradiated feeder cells (V79 cells) were used at a concentration of 25,000/ml to support the growth of the surviving CaNT cells. The data were calculated as surviving fraction per gram of tumour.
ZD6126 was administered as a single dose of […] intra-peritoneally (i.p.) in saline with a small amount of 1% sodium carbonate added to aid the dissolution of ZD6126.
ZD6126 was dosed using a split dose regimen of 100 mg/kg ZD6126, followed by a time interval, followed by a further 100 mg/kg ZD6126; doses were given intraperitoneally (i.p.) in saline with a small amount of 1% sodium carbonate added to aid the dissolution of ZD6126.
The time intervals used were 1, 2, 3, 4 and 6 hours.
This improved effect varied with the proportion of total dose given in the first and second doses.
ZD6126 was dosed using split dose regimens of: • i) 25 mg/kg ZD6126, followed by a 2 hour interval, followed by a further 175 mg/kg ZD6126; • ii) 50 mg/kg ZD6126, followed by a 2 hour interval, followed by a further 150 mg/kg ZD6126; • iii) 100 mg/kg ZD6126, followed by a 2 hour interval, followed by a further 100 mg/kg ZD6126; • iv) 150 mg/kg ZD6126, followed by a 2 hour interval, followed by a further 50 mg/kg ZD6126; • v) 175 mg/kg ZD6126, followed by a 2 hour interval, followed by a further 25 mg/kg ZD6126;
All doses were given intraperitoneally (i.p.) in saline with a small amount of 1% sodium carbonate added to aid the dissolution of ZD6126.

murine KHT sarcoma [6] = test: KHT sarcoma tumour cell survival (excision and colony formation), ZD6126 and radiation; assay type: in vivo, mice
Description: The murine KHT sarcoma grown in C3H mice was also used to confirm the advantage of combining ZD6126 and radiation. Tumours were treated with either radiation alone (0, 5, 10, 15 or 20 Gy single dose), ZD6126 100 mg/kg i.p., or radiation followed 1 hour later by ZD6126 100 mg/kg i.p.. The effects of either radiation alone, ZD6126 alone or the combination on tumour cell survival was assessed 24 hours later by excising the tumour, disaggregating the cells and determining the number of colonies formed after 10-14 days. Surviving fraction compared to untreated cells was then determined.

[7] = study 1, ZD6126 2x100 mg/kg i.p. 2 h apart days 0, 2, 4, cisplatin 5 mg/kg i.p. day 0
[8] = study 2, ZD6126 2x100 mg/kg i.p. 2 h apart days 0, 4, 7, 11, cisplatin 5 mg/kg i.p. days 0 and 7

N.N.[Cl-].[Cl-].[Pt+2] [Cisplatin, cis-Platinum(II)Diammine Dichloride, reference compound]
cell killing (murine KHT sarcoma [1]): approximately 98%
growth delay (time to reach 2× starting volume) compared to control tumours [2]: 6.0 days
Mean growth delay (vs control) - days [3, 7]: 2.1 days
Mean growth delay (vs control) - days [3, 8]: 7.7 days

COc1cc2c(c(OC)c1OC)-c1ccc(OP(=O)(O)O)cc1[C@@H](NC(C)=O)CC2 [ZD6126, (5S)-5-(acetylamino)-9,10,11-trimethoxy-6,7-dihydro-5H-dibenzo[a,c]cyclohepten-3-yl dihydrogen phosphate]
Mean growth delay (vs control) - days (CaNT tumours): 9.1 days
Mean growth delay (vs control) - days [4]: 4.3 days
growth delay (time to reach 2× starting volume) compared to control tumours [2]: 10.1 days
split dose proportion giving the best anti-tumour effect ([5]; 100 mg/kg, 2 hour interval, further 100 mg/kg i.p.): best effect was seen with equal split doses
anti-tumour effect, as measured by surviving fraction of tumour cells, divided doses versus single dose ([5]; divided doses 2 hours apart (25+175, 50+150, 100+100, 150+50, 175+25 mg/kg i.p.) vs single 200 mg/kg): greater with divided doses of ZD6126 than with a single dose
surviving fraction per gram of tumour, divided doses versus single dose ([5]; two doses of 100 mg/kg i.p. separated by 2, 3 or 4 hours vs a single 200 mg/kg dose, about 18 hours after treatment): significantly more effective
Mean growth delay (vs control) - days [3, 7]: 6.5 days
Mean growth delay (vs control) - days [3, 8]: 9.9 days
tumour cells killed (murine KHT sarcoma [6]; ZD6126 alone 100 mg/kg): 97-98%
enhancement in cell killing (murine KHT sarcoma [6]; ZD6126 combined with radiation doses of 5, 10 or 15 Gy): 100-200 fold
Plus ZD6126 % cell survival (murine KHT sarcoma [6]; radiation dose 0 Gy, ZD6126 100 mg/kg i.p., C3H mice): 2.5%
ZD6126 Enhancement (murine KHT sarcoma [6]; radiation dose 0 Gy, ZD6126 100 mg/kg i.p., over controls): 40 fold
Plus ZD6126 % cell survival (murine KHT sarcoma [6]; radiation dose 5 Gy, ZD6126 100 mg/kg i.p. 1 hour later): 0.16%
ZD6126 Enhancement (murine KHT sarcoma [6]; radiation dose 5 Gy, ZD6126 100 mg/kg i.p.): 125 fold
Plus ZD6126 % cell survival (murine KHT sarcoma [6]; radiation dose 10 Gy, ZD6126 100 mg/kg i.p. 1 hour later): 0.015%
ZD6126 Enhancement (murine KHT sarcoma [6]; radiation dose 10 Gy, ZD6126 100 mg/kg i.p.): 100 fold
Plus ZD6126 % cell survival (murine KHT sarcoma [6]; radiation dose 15 Gy, ZD6126 100 mg/kg i.p. 1 hour later): 0.0016%
ZD6126 Enhancement (murine KHT sarcoma [6]; radiation dose 15 Gy, ZD6126 100 mg/kg i.p.): 219 fold

CC(=O)O[C@H]1C(=O)[C@@]2(C)[C@H]([C@H](OC(=O)c3ccccc3)[C@]3(O)C[C@H](OC(=O)[C@H](O)[C@@H](NC(=O)c4ccccc4)c4ccccc4)C(C)=C1C3(C)C)[C@]1(OC(C)=O)CO[C@@H]1C[C@@H]2O [Paclitaxel, paclitaxel, reference compound]
Mean growth delay (vs control) - days [4]: 5.1 days
